This note sets out measurements from PMC2752052 (Analytical biochemistry, 2009).

The assay has as its target T1, Sirt1 (Homo sapiens, UniProt Q96EB6).
T1 sequence (Q96EB6 2-747): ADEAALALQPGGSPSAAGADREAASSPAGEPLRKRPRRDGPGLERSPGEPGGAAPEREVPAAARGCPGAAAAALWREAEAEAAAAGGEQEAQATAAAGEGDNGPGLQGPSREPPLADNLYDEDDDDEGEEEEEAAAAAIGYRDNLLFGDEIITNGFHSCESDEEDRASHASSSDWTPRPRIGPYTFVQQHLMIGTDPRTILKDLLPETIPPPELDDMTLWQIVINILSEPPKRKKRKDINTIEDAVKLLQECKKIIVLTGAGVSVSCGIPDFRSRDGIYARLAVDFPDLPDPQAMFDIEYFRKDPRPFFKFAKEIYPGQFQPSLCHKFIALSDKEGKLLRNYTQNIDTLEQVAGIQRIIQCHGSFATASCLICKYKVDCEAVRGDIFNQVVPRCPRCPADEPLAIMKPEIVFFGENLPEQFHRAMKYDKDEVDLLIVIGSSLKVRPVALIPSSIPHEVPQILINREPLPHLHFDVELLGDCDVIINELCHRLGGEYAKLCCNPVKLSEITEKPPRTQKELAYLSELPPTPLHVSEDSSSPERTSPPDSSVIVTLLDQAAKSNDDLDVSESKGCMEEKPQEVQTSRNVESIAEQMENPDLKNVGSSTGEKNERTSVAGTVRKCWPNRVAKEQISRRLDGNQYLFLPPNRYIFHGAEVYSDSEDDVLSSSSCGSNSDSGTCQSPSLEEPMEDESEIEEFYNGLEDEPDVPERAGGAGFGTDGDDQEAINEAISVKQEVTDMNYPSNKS
As to the kind of experiment: nicotinamidase/glutamate dehydrogenase coupled assay. In kind it is biochemical.

For the compound `Nc1ncnc2c1ncn2[C@@H]1O[C@H](COP(=O)(O)OP(=O)(O)OC[C@H]2OC(O)[C@H](O)[C@@H]2O)[C@@H](O)[C@H]1O` (stereo partly shown) [ADP-ribose], half-maximal inhibition (IC50) required 77 ± 4 µM.
